One data set relates to MDR E. coli ASEC 15. More on the design: method as in Asan hospital; key to susceptibility category: S: susceptible; R: resistant; I: intermediate. The following applies: ref Asan hospital, cited from earlier work; for MIC: ASEC 15 (AmpC), resistance information of clinical isolate; for susceptibility category: ASEC 15.
The next data set deals with MDR E. coli ASEC 5. More on the design: method as in Asan hospital; key to susceptibility category: S: susceptible; R: resistant; I: intermediate. The following applies: ref Asan hospital, cited from earlier work; for MIC: ASEC 5 (ESBL), resistance information of clinical isolate; for susceptibility category: ASEC 5.
The test system of data set [1] is ASEC strains (drug-resistant E. coli, ASEC 1 to 19). Nature of the data set: MIC, microdilution, summary over clinical isolates. In kind it is cell-based. Conditions: Escherichia coli; cefotaxime and ceftazidime: 'mostly showed no activity'. On the procedure:
(§1) Bacterial cells were cultured at 37°C in the appropriate culture media with shaking (180 rpm). Luria-Bertani broth (LB) (244620; BD Difco) was used for E. coli ATCC 25922, ASEC strains, and B. subtilis KCTC 2217. Nutrient broth (NB) (234000; BD Difco) was used for P. aeruginosa ATCC 27853, S. Typhimurium KCTC 1926, and A. baumannii KCTC 2508. Tryptic soy broth (TSB) (211825; BD Difco) was used for S. aureus ATCC 25923. Finally, brain heart infusion (BHI) (237500; BD Difco) was used for L. monocytogenes KCTC 3710. The antimicrobial activity of each peptide was determined using microdilution assays. To this end, 2-fold serial dilution series of each peptide (from 1 to 64 μM) were added to duplicate media with 10 mM sodium phosphate buffer (pH 7.4). Fifty microliters of the peptide and antibiotic solution was added to each well of a 96-well plate (32096, surface nontreatment; SPL Life Sciences). Then, 50 μL of 2 × 10^5 CFU mL^−1 of bacteria was added to each well, and the samples were incubated for 18 to 24 h without shaking at 37°C.
In general terms: Broth dilution looks for growth in wells or tubes with falling amounts of substance.

Data set [2] relates to E. coli – Meropenem (Passage 25). Description: microbe, parasite or virus in culture. In kind it is cell-based, Escherichia coli. How it is done: (§2) E. coli ATCC 25922 cells were incubated overnight at 37°C in LB medium with shaking (180 rpm) and then adjusted to 2 × 10^5 CFU mL^−1; 0.5× MIC of PN5 and antibiotics were added to the medium and cultured overnight at 37°C with aeration (180 rpm). The MIC was determined by measuring the OD600 using a Versa Max microplate reader. On the next day, to measure the MIC with the bacteria grown after treatment with 0.5× MIC, the bacteria and antibiotic were adjusted to the same concentration, and the bacteria were cultured by adding 0.5× MIC in the same manner. The initial culture was continuously cultured for 25 passages in this manner.

For data set [3], the system named is E. coli – Ceftazidime (Passage 25). Nature of the data set: microbe, parasite or virus in culture. It is filed as cell-based, Escherichia coli. How it is done: as §2
In the next data set the test system is E. coli ATCC 25922. Description: microbe, parasite or virus in culture. In kind it is cell-based, Escherichia coli. The following applies: for MIC: Escherichia coli. How it is done:
as §2

For the next data set, the system named is mouse red blood cells. Nature of the data set: Hemolytic activity. It is filed as cell-based. Conditions: 200 μM; 8% mouse red blood cells, 1 h, 37°C. How it is done: RAW 264.7 cells (mouse macrophage cells) were maintained in high-glucose Dulbecco’s modified Eagle medium (DMEM) (Welgene, Daegu, South Korea) supplemented with 10% fetal bovine serum (FBS) (Gibco) and 1% penicillin at 37°C in humidified 5% CO2. Cells (2 × 10^5 cells well^−1) were seeded into DMEM supplemented with 10% FBS medium in a 96-well plate. The MTT assay was performed after culturing the cells in 96-well plates at a density of 2 × 10^5 cells well^−1, followed by treatment with serially diluted PN5, magainin 2, and melittin. After 24 h, the medium was discarded, and 100 μL DMEM and 10% FBS medium containing 0.5 mg mL^−1 MTT were added to each well. After 4 h of incubation, the medium was discarded and dimethyl sulfoxide was added to each well to solubilize the formazan. The optical densities at 570 and 650 nm (OD570 and OD650, respectively) of the treated cells were compared to those of control cells. The hemolytic activity of the peptides was evaluated as the release of hemoglobin from an 8% mRBC suspension. A 100-μL aliquot of the 8% mRBC suspension was added to the wells of a 96-well plate, and 100 μL of peptide solution in phosphate-buffered saline (PBS) was added at a final peptide concentration of 200 μM. After incubation for 1 h at 37°C with shaking (50 rpm), the suspensions were centrifuged at 1,000 × g for 5 min. The absorbance of the supernatant was measured at 414 nm using a Versa Max microplate reader (Molecular Devices). As a control, no hemolysis and complete hemolysis were determined in PBS and 0.1% Triton X-100, respectively. The degree of hemolysis was calculated using the following equation as described in reference: %hemolysis=[(A414withpeptide-A414withPBS)/(A414with0.1%TritonX-100-A414 with PBS)] × 100

For data set [4] the following is noted: 200 μg/mL^−1; previous study; cited from earlier work. An excerpt:
In this study, we confirmed that PN5 has antimicrobial activities against Gram-negative and Gram-positive bacteria, including MDR E. coli. The ASEC strains that were clinically isolated from patients, mentioned in Table S3 in the supplemental material, produced ESBL, which induces resistance to β-lactam antibiotics, and New Delhi metallo-β-lactamase (NDM), which hydrolyzes a class of carbapenems. […] The four PN peptides (PN5, PN7, PN8, and PN10) purified from pine ne ...

A further data set concerns S. aureus ATCC 25923. It is filed as cell-based, Staphylococcus aureus. The following applies: microdilution, TSB, 18 to 24 h, 37°C, three independent experiments. How it is done:
as §1

A further data set concerns RAW 264.7 cells. Description: IncuCyte Cytotox green time-dependent cytotoxicity. The following applies: 200 μM, 24 h. It is filed as cell-based, mouse. How it is done: An IncuCyte cytotoxicity assay (Essen BioScience, Inc., Ann Arbor, MI, USA) was performed to evaluate time-dependent cytotoxicity. RAW 264.7 cells (2 × 10^5 cells well^−1) were seeded into 96-well culture plates and then treated with peptides and IncuCyte Cytotox green reagent (Essen BioScience, Inc.). Up to 200 μM PN5 and 25 μM melittin were used to treat RAW 264.7 cells, with the concentrations serially diluted by half. […] The cells were stained with IncuCyte Cytotox green reagent. The viability was measured using IncuCyte software (Essen BioScience, Inc.) ([56]).

The next data set deals with B. subtilis KCTC 2217. In kind it is cell-based, Bacillus subtilis. Conditions: microdilution, LB, 18 to 24 h, 37°C, three independent experiments. On the procedure:
as §1

[5] abbreviates: Escherichia coli, read-out: MIC, value in parentheses.
[6] abbreviates: E. coli ATCC 25922 passaged with 0.5× MIC of the same agent.
[7] abbreviates: ATCC25922, read-out: MIC after 25 passages.
Where [8] appears, read: ATCC25922, read-out: MIC at passage 1.

Values after ≈ are worked out from the molar mass of the structure shown. Like-named read-outs stand apart in the source and are kept apart here. Where no end group is shown, it is not given here.

For `CO/N=C(\C(=O)N[C@@H]1C(=O)N2C(C(=O)O)=C(COC(C)=O)CS[C@H]12)c1csc(N)n1` [Cefotaxime], the figures for the MIC (with MDR E. coli ASEC 15; with MDR E. coli ASEC 5; in data set [1]) were above 32 µg/mL, above 32 µg/mL and above 32 µM, respectively. Also, the susceptibility category result in the data set with MDR E. coli ASEC 15 and with MDR E. coli ASEC 5 was “R” each time.
Consider `CC(C)(O/N=C(\C(=O)N[C@@H]1C(=O)N2C(C(=O)[O-])=C(C[n+]3ccccc3)CS[C@H]12)c1csc(N)n1)C(=O)O` [Ceftazidime], for which the MIC in the data set on MDR E. coli ASEC 15 was above 16 µg/mL; in [2] (Escherichia coli, ATCC25922) it was 0.25 µM (≈ 0.137 µg/mL); in data set [2] (setting [5]), 0.25 µM (≈ 0.137 µg/mL); in data set [3] (Escherichia coli, ATCC25922), 128 µM (≈ 70 µg/mL); in [3] (setting [5]), 0.25 µM (≈ 0.137 µg/mL); in the data set with E. coli ATCC 25922 (setting [7]) it was 128 µM (≈ 70 µg/mL). The MIC was 0.25 µM (≈ 0.137 µg/mL) in the data set on E. coli ATCC 25922 (setting [8]), above 16 µg/mL in the data set on MDR E. coli ASEC 5 and above 32 µM in data set [1]. Moreover, the susceptibility category entry in the data set on MDR E. coli ASEC 15 and in the data set on MDR E. coli ASEC 5 was “R” each time. Moreover, in the data set with E. coli ATCC 25922 (setting [6]), the “fold increase of MIC after 25 passages” value turned out to be 512 fold.
Regarding `C[C@@H](O)[C@H]1C(=O)N2C(C(=O)O)=C(S[C@@H]3CN[C@H](C(=O)N(C)C)C3)[C@H](C)[C@H]12` [Meropenem], the MIC result in the data set with MDR E. coli ASEC 15 was “<= 1 μg mL-1”; in [2] (Escherichia coli, ATCC25922), 0.25 µM (≈ 0.0959 µg/mL); in data set [2] (setting [5]) it was 0.0312 µM (≈ 0.012 µg/mL); in data set [3] (Escherichia coli, ATCC25922), 0.0312 µM (≈ 0.012 µg/mL); in data set [3] (setting [5]) it was 0.0312 µM (≈ 0.012 µg/mL); with E. coli ATCC 25922 (setting [7]), 0.25 µM (≈ 0.0959 µg/mL). For the same compound, the MIC is 0.0312 µM (≈ 0.012 µg/mL) with E. coli ATCC 25922 (setting [8]) and “<= 4 μg mL-1” with MDR E. coli ASEC 5. For the same compound, the susceptibility category entry with MDR E. coli ASEC 15 and in the data set with MDR E. coli ASEC 5 was “S” each time. Besides, in the data set with E. coli ATCC 25922 (setting [6]), the “fold increase of MIC after 25 passages” value was 8 fold.
For FKFLARTGKFL-NH2 [PN5], the MIC in data set [2] (E. coli ATCC 25922 with resistance induced by meropenem, passage 25, three independent experiments) amounted to 16 µM; in [3] (E. coli ATCC 25922 with resistance induced by ceftazidime, passage 25, three independent experiments), 16 µM; against S. aureus ATCC 25923 it was 2 µM; against B. subtilis KCTC 2217, 4 µM. For the same compound, in the data set with E. coli ATCC 25922 (setting [6]), the “MIC after 25 passages” value is 16 µM. For the same compound, the hemolysis result with mouse red blood cells is reported as “did not induce hemolysis”. Moreover, the cytotoxicity entry in data set [4] was “less than 20%”. In the data set on RAW 264.7 cells, the “cytotoxicity, Cytotox green fluorescence” value was “no toxicity”.

The values are drawn from publication PMC9603901, “Therapeutic Potential of Antimicrobial Peptide PN5 against Multidrug-Resistant E. coli and Anti-Inflammatory Activity in a Septic Mouse Model” (Microbiology Spectrum, 2022).
